For orientation: IC50 means the concentration that inhibits the measured activity by half.

The experiment deals with human CB1 (cannabinoid receptor 1) (Homo sapiens, UniProt P21554). The experiment is described as follows: CB1 receptor inhibition effect: calcium ion influx assay (Fluo-4 NW) in Chem-1 cells after 1 μM R-(+)-WIN55212-2. Type of experiment: cell-based. The note with it: calcium ion influx in Chem-1 cells expressing human CB1, 1 μM R-(+)-WIN55212-2. How it is done: When cells in which the cannabinoid receptor 1 (CB1) is stably expressed are treated with a CB1 receptor agonist, the CB1 receptor is activated and influx of calcium ions into the cells increases. CB1 receptor inhibition effect of a test compound can be evaluated by measuring the degree of calcium influx inhibition after treating with the test compound.
human CB1 (cannabinoid receptor 1), sequence (P21554 whole entry): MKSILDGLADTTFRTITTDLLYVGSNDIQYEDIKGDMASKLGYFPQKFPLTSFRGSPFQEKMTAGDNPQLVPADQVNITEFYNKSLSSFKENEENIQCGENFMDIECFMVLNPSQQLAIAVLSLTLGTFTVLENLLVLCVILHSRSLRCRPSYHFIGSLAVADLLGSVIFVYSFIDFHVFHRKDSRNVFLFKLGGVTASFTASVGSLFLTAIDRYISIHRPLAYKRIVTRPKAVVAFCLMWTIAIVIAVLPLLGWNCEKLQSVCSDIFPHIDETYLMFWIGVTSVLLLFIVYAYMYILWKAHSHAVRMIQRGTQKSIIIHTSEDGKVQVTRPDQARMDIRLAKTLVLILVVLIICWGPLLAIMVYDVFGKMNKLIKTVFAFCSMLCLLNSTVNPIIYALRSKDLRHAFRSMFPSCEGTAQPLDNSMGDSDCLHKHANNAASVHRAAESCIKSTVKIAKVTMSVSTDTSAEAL
First, Chem-1 cells (Chemicon International, #HTS019C) in which human CB1 cDNA is expressed stably were seeded onto a 96-well cell culture plate at a density of ˜50,000 cells/well and incubated overnight in a 5% CO2 incubator at 37° C. The next day, the culture medium was discarded and the cells were cautiously washed once using an assay buffer (HBSS containing 20 mM HEPES and 2.5 mM probenecid) with 200 μL/well. Calcium ion influx was measured using an assay kit (Fluo-4 NW calcium assay kit: Molecular Probes™, #F36206) according to the manufacturer's instructions. The compounds of Examples of desired concentration to be measured were comprised to 0.5% DMSO. For control, only 0.5% DMSO was used without the compounds of Examples. Reaction time was 10 minutes. After treating the Chem-1 cells stably expressing the CB1 receptor with 1 μM R-(+)-WIN55212-2 (Sigma, #W102), a CB1 receptor agonist, calcium ion (Ca^2+) flux induced thereby was measured for 80 seconds using Flex Station 3 (Molecular Device, USA).
The difference in calcium ion concentration of the cells treated with the compounds of Examples or those treated with 1 μM R-(+)-WIN55212-2 was obtained from the difference of the maximum and minimum values during the 80 seconds. Then, % inhibition of the compounds for the CB1 receptor was calculated using the following equation. % inhibition={1−(ΔRFUcompound−ΔRFUBlank)/(ΔRFUControl−ΔRFUBlank)}×100 [Equation]
ΔRFU: maximum relative fluorescence units−minimum relative fluorescence units
ΔRFUCompound: difference in maximum and minimum RFUs in the well where the compounds of Examples dissolved in DMSO to a final concentration of 0.5% and 1 μM R-(+)-WIN55212-2 dissolved in DMSO to a final concentration of 0.5% were added
ΔRFUBlank: difference in maximum and minimum RFUs in the well to which only 1% DMSO was added
ΔRFUControl: difference in maximum and minimum RFUs in the well where 0.5% DMSO and 1 μM R-(+)-WIN55212-2 dissolved in DMSO to a final concentration of 0.5% were added
As to `Cc1nn2c(-c3ccc(F)cc3)cc(N3CCC[C@H]3CO)nc2c1-c1ccc(C(F)F)cc1` [Example 67], the IC50 amounted to 94 nM.
Next, `CSc1ccc(-c2c(C)nn3c(-c4ccc(F)cc4)cc(N4CCC[C@H]4CO)nc23)cc1` [Example 68]: 170 nM; `Cc1nn2c(-c3ccc(F)cc3)cc(N3CCC[C@H]3CO)nc2c1-c1ccc(C(F)(F)F)cc1` [Example 69]: 220 nM; `CCc1ccc(-c2c(C)nn3c(-c4ccc(F)cc4)cc(N4CCC[C@H]4CO)nc23)cc1` [Example 70]: 230 nM.
Turning to `C=Cc1ccc(-c2c(C)nn3c(-c4ccc(F)cc4)cc(N4CCC[C@H]4CO)nc23)cc1` [Example 71], the IC50 came out at 210 nM.
The value for `CCCc1ccc(-c2c(C)nn3c(-c4ccc(F)cc4)cc(N4CCC[C@H]4CO)nc23)cc1` [Example 72] was 350 nM; that for `CCCOc1ccc(-c2c(C)nn3c(-c4ccc(F)cc4)cc(N4CCC[C@H]4CO)nc23)cc1` [Example 74] was 160 nM; that for `Cc1nn2c(-c3ccc(F)cc3)cc(N3CCC[C@H]3CO)nc2c1-c1ccc(F)cc1F` [Example 77] was 350 nM.
Turning to `Cc1ccc(-c2c(C)nn3c(-c4ccc(F)cc4)cc(N4CCC[C@H]4CO)nc23)cc1F` [Example 79], the IC50 came out at 100 nM.
On to `CCOc1ccc(-c2c(C)nn3c(-c4ccc(F)cc4)cc(N4CCC[C@H]4CO)nc23)cc1F` [Example 81], for which the IC50 is 300 nM.
As for `Cc1nn2c(-c3ccc(F)cc3)cc(N3CCC[C@H]3CO)nc2c1-c1ccccc1` [Example 83], the IC50 was found to be 220 nM.
As for `Cc1nn2c(-c3ccc(F)cc3)cc(N3CCC[C@H]3CO)nc2c1-c1ccc(OC(F)(F)F)cc1` [Example 84], the IC50 amounted to 530 nM.
Consider `Cc1nn2c(-c3ccc(F)cc3)cc(N3CCC[C@H]3CO)nc2c1-c1ccc(OC(C)C)cc1` [Example 85], for which the IC50 is 470 nM.
Regarding `Cc1nn2c(-c3ccc(F)cc3)cc(N3CCC[C@H]3CO)nc2c1-c1ccccc1F` [Example 87], the IC50 amounted to 430 nM.
Next, `Cc1nn2c(-c3ccc(F)cc3)cc(N3CCC[C@H]3CO)nc2c1-c1ccc(Cl)c(Cl)c1` [Example 96]: 310 nM.
The value for `CCCOc1ccc(-c2c(C)nn3c(-c4ccc(F)cc4)cc(N4CCC[C@H]4CO)nc23)cc1F` [Example 100] was 310 nM; that for `Cc1cc(-c2c(C)nn3c(-c4ccc(F)cc4)cc(N4CCC[C@H]4CO)nc23)ccc1F` [Example 101] was 160 nM; that for `Cc1nn2c(-c3ccc(F)cc3)cc(N3CCC[C@H]3CO)nc2c1-c1ccc(C#N)cc1` [Example 106] was 250 nM.
Next, `Cc1ccc(-c2c(C)nn3c(-c4cccc(F)c4)cc(N4CCC[C@H]4CO)nc23)cc1` [Example 110, (S)-(1-(3-(4-methylphenyl)-7-(3-fluorophenyl)-2-methylpyrazolo[1,5-a]pyrimidin-5-yl)pyrrolidin-2-yl)methanol]: 80 nM; `COc1ccc(-c2c(C)nn3c(-c4cccc(F)c4)cc(N4CCC[C@H]4CO)nc23)cc1` [Example 111]: 60 nM; `CCOc1ccc(-c2c(C)nn3c(-c4cccc(F)c4)cc(N4CCC[C@H]4CO)nc23)cc1` [Example 112]: 130 nM.
For the compound `Cc1nn2c(-c3cccc(F)c3)cc(N3CCC[C@H]3CO)nc2c1-c1ccc2c(c1)OCO2` [Example 113], the IC50 is 49 nM.
With `Cc1nn2c(-c3cccc(F)c3)cc(N3CCC[C@H]3CO)nc2c1-c1ccc(C(F)F)cc1` [Example 114], the IC50 is 77 nM.
Next, `Cc1nn2c(-c3cccc(F)c3)cc(N3CCC[C@H]3CO)nc2c1-c1ccc(C(F)(F)F)cc1` [Example 115]: 140 nM; `CCc1ccc(-c2c(C)nn3c(-c4cccc(F)c4)cc(N4CCC[C@H]4CO)nc23)cc1` [Example 116]: 160 nM.
Next, `C=Cc1ccc(-c2c(C)nn3c(-c4cccc(F)c4)cc(N4CCC[C@H]4CO)nc23)cc1` [Example 117]: 240 nM; `CCCOc1ccc(-c2c(C)nn3c(-c4cccc(F)c4)cc(N4CCC[C@H]4CO)nc23)cc1` [Example 119]: 450 nM; `Cc1ccc(-c2c(C)nn3c(-c4cccc(C(F)(F)F)c4)cc(N4CCC[C@H]4CO)nc23)cc1` [Example 122]: 45 nM.
In the case of `COc1ccc(-c2c(C)nn3c(-c4cccc(C(F)(F)F)c4)cc(N4CCC[C@H]4CO)nc23)cc1` [Example 123], the IC50 worked out at 76 nM.
For `CCOc1ccc(-c2c(C)nn3c(-c4cccc(C(F)(F)F)c4)cc(N4CCC[C@H]4CO)nc23)cc1` [Example 124], the IC50 turned out to be 70 nM.
In the case of `Cc1nn2c(-c3cccc(C(F)(F)F)c3)cc(N3CCC[C@H]3CO)nc2c1-c1ccc2c(c1)OCO2` [Example 125], the IC50 was 90 nM.
Take `Cc1nn2c(-c3cccc(C(F)(F)F)c3)cc(N3CCC[C@H]3CO)nc2c1-c1ccc(C(F)F)cc1` [Example 126]: the IC50 came to 69 nM.
The value for `Cc1nn2c(-c3cccc(C(F)(F)F)c3)cc(N3CCC[C@H]3CO)nc2c1-c1ccc(C(F)(F)F)cc1` [Example 128] was 66 nM; that for `CCc1ccc(-c2c(C)nn3c(-c4cccc(C(F)(F)F)c4)cc(N4CCC[C@H]4CO)nc23)cc1` [Example 129] was 73 nM; that for `CCCOc1ccc(-c2c(C)nn3c(-c4cccc(C(F)(F)F)c4)cc(N4CCC[C@H]4CO)nc23)cc1` [Example 133] was 280 nM.
Next, `Cc1nn2c(-c3cccc(C(F)(F)F)c3)cc(N3CCC[C@H]3CO)nc2c1-c1ccc(F)c(F)c1` [Example 134]: 190 nM.
As for `Cc1nn2c(-c3cccc(C(F)(F)F)c3)cc(N3CCC[C@H]3CO)nc2c1-c1ccc(F)cc1F` [Example 135], the IC50 amounted to 120 nM.
The value for `Cc1ccc(-c2c(C)nn3c(-c4cccc(C(F)(F)F)c4)cc(N4CCC[C@H]4CO)nc23)cc1F` [Example 137] was 90 nM; that for `COc1ccc(-c2c(C)nn3c(-c4cccc(C(F)(F)F)c4)cc(N4CCC[C@H]4CO)nc23)cc1F` [Example 138] was 210 nM; that for `Cc1nn2c(-c3cccc(C(F)(F)F)c3)cc(N3CCC[C@H]3CO)nc2c1-c1ccc(F)cc1` [Example 139] was 140 nM.
The value for `Cc1ccc(-c2c(C)nn3c(-c4cccc(C)c4)cc(N4CCC[C@H]4CO)nc23)cc1` [Example 156] was 46 nM; that for `COc1ccc(-c2c(C)nn3c(-c4cccc(C)c4)cc(N4CCC[C@H]4CO)nc23)cc1` [Example 157, (S)-(1-(3-(4-methoxyphenyl)-7-(3-methylphenyl)-2-methylpyrazolo[1,5-a]pyrimidin-5-yl)pyrrolidin-2-yl)methanol] was 210 nM.
Regarding `CCOc1ccc(-c2c(C)nn3c(-c4cccc(C)c4)cc(N4CCC[C@H]4CO)nc23)cc1` [Example 158], the IC50 turned out to be 210 nM.
The value for `Cc1cccc(-c2cc(N3CCC[C@H]3CO)nc3c(-c4ccc5c(c4)OCO5)c(C)nn23)c1` [Example 159] was 200 nM; that for `Cc1cccc(-c2cc(N3CCC[C@H]3CO)nc3c(-c4ccc(C(F)F)cc4)c(C)nn23)c1` [Example 160] was 110 nM; that for `CSc1ccc(-c2c(C)nn3c(-c4cccc(C)c4)cc(N4CCC[C@H]4CO)nc23)cc1` [Example 162] was 110 nM.
The value for `Cc1cccc(-c2cc(N3CCC[C@H]3CO)nc3c(-c4ccc(C(F)(F)F)cc4)c(C)nn23)c1` [Example 163] was 260 nM; that for `C=Cc1ccc(-c2c(C)nn3c(-c4cccc(C)c4)cc(N4CCC[C@H]4CO)nc23)cc1` [Example 165] was 330 nM; that for `Cc1cccc(-c2cc(N3CCC[C@H]3CO)nc3c(-c4ccc(F)cc4)c(C)nn23)c1` [Example 167] was 250 nM.
As for `Cc1cccc(-c2cc(N3CCC[C@H]3CO)nc3c(-c4ccc(OC(F)(F)F)cc4)c(C)nn23)c1` [Example 168], the IC50 worked out at 450 nM.
Next, `COc1ccc(-c2c(C)nn3c(-c4cccc(Cl)c4)cc(N4CCC[C@H]4CO)nc23)cc1` [Example 169, (S)-(1-(3-(4-methoxyphenyl)-7-(3-chlorophenyl)-2-methylpyrazolo[1,5-a]pyrimidin-5-yl)pyrrolidin-2-yl)methanol]: 33 nM; `Cc1ccc(-c2c(C)nn3c(-c4cccc(Cl)c4)cc(N4CCC[C@H]4CO)nc23)cc1` [Example 170]: 160 nM; `CCOc1ccc(-c2c(C)nn3c(-c4cccc(Cl)c4)cc(N4CCC[C@H]4CO)nc23)cc1` [Example 171]: 240 nM.
`Cc1nn2c(-c3cccc(Cl)c3)cc(N3CCC[C@H]3CO)nc2c1-c1ccc2c(c1)OCO2` [Example 172]: the IC50 amounted to 190 nM.
